The record followed here is BindingDB's records for doi:10.1021/jm990590f (Dupont Pharmaceuticals, 2000).

Assay [1] has as its target Corticotropin-releasing factor receptor 1 (Rattus norvegicus) (UniProt P35353). In words: Compound was tested for the inhibition of binding of the radioligand, [125 I-Tyr0]-CRF to rat cerebral cortex membrane.
For assay [2] the target is unchanged. In words: Inhibition of corticotropin releasing factor receptor mediated increase in cAMP level using rat cortical homogenates in vitro. (Changes in cAMP serve as a functional read-out for many G protein-coupled receptors.)

Sequence of Corticotropin-releasing factor receptor 1 (Rattus norvegicus) (P35353 whole entry, looked up): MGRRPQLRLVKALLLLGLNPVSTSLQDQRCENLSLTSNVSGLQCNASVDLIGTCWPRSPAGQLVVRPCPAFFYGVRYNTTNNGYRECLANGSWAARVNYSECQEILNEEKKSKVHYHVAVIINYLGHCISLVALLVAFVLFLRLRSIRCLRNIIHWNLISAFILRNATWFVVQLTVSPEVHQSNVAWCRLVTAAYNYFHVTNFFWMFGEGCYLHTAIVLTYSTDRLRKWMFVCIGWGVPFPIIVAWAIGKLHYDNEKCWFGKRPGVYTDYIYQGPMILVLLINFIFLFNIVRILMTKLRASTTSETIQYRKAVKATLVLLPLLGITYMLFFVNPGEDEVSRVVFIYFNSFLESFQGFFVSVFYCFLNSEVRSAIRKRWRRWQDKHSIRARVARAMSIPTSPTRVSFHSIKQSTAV

As for `CCN(c1nc(C)cc(N2CCOCC2)n1)c1ccc(C(C)C)cc1Br` [(2-Bromo-4-isopropyl-phenyl)-ethyl-(4-methyl-6-morpholin-4-yl-pyrimidin-2-yl)-amine], affinity in assay [1] was put at a Ki of 0.063 µM. This lies in the double-digit nanomolar range.
Regarding `COCC(COC)n1nnc2c(Nc3c(C)cc(C)cc3Cl)nc(C)cc21` [DMP-695], 0.079 µM corresponded to half-maximal inhibition in assay [2] (IC50).
